# Reference: PubChem BioAssay AID330 (DTP/NCI, 2004)
# Several values for one entry are separate records, joined by “and”; a condition that tells them apart may be missing. Equal entries are not always repeated. Toxic doses and inconclusive results are not listed.
# System: P388 leukemia ip, CD2F1 mice, survival T/C
# Assay: NCI In Vivo Anticancer Drug Screen. Data for tumor model P388 Leukemia (intraperitoneal) in CD2F1 (CDF1) mice
# Settings: endpoint: median survival time, higher = longer survival
# Method in brief: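 Mice carrying the transplanted tumor received test compound or vehicle. Survival was recorded in each group, and the value is the treated-group measurement divided by that of the vehicle-treated control group.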
# [1] = dose: 50.0 mg/kg/injection, schedule: Q01DX009 (ip), vehicle: Klucel (hydroxypropylcellulose) (HPC)
# [2] = dose: 100.0 mg/kg/injection, schedule: Q01DX009 (ip), vehicle: Klucel (hydroxypropylcellulose) (HPC)
# [3] = dose: 200.0 mg/kg/injection, schedule: Q01DX009 (ip), vehicle: Klucel (hydroxypropylcellulose) (HPC)
# [4] = dose: 50.0 mg/kg/injection, schedule: Q01DX005 (ip), vehicle: Klucel (hydroxypropylcellulose) (HPC)
structure (smiles),measurement,setting,value
COc1ccc(=NC(C)=O)c2c(O)c3c(=O)c4[nH]c5c(OC)ccc(=NC(C)=O)c5c(O)c4c(=O)c3[nH]c12,T/C,[1],89 % of control
same,T/C,[2],99 % of control
same,T/C,[3],99 % of control
Nc1nc2ncc(CN(C(=O)CCl)c3ccc(C(=O)NC(CCC(=O)O)C(=O)O)cc3)nc2c(=O)[nH]1 (stereo not given),T/C,[1],95 % of control
same,T/C,[2],107 % of control
same,T/C,[3],108 % of control
Cn1c(CC(=O)O)csc1=S,T/C,"dose: 50.0 mg/kg/injection, schedule: Q01DX005 (ip), vehicle: saline with Tween-80",93 % of control
same,T/C,"dose: 100.0 mg/kg/injection, schedule: Q01DX005 (ip), vehicle: saline with Tween-80",94 % of control
same,T/C,"dose: 200.0 mg/kg/injection, schedule: Q01DX005 (ip), vehicle: saline with Tween-80",89 % of control
C/C(=N\NC(=O)Cc1ccccc1)C(=O)O,T/C,[4],100 % of control
same,T/C,"dose: 100.0 mg/kg/injection, schedule: Q01DX005 (ip), vehicle: Klucel (hydroxypropylcellulose) (HPC)",89 % of control
same,T/C,"dose: 200.0 mg/kg/injection, schedule: Q01DX005 (ip), vehicle: Klucel (hydroxypropylcellulose) (HPC)",94 % of control
CC(C)NC(=O)OCc1c(COC(=O)NC(C)C)c(-c2ccc(Cl)c(Cl)c2)n2c1CSC2,T/C,"dose: 25.0 mg/kg/injection, schedule: Q01DX005 (ip), vehicle: Klucel + Tween-80",91 % of control
same,T/C,"dose: 50.0 mg/kg/injection, schedule: Q01DX005 (ip), vehicle: Klucel + Tween-80",88 % of control
same,T/C,"dose: 100.0 mg/kg/injection, schedule: Q01DX005 (ip), vehicle: Klucel + Tween-80",87 % of control and 92 % of control
same,T/C,"dose: 200.0 mg/kg/injection, schedule: Q01DX005 (ip), vehicle: Klucel + Tween-80",86 % of control and 88 % of control
same,T/C,"dose: 400.0 mg/kg/injection, schedule: Q01DX005 (ip), vehicle: Klucel + Tween-80",89 % of control
CCCC(=O)NC1=C(N2CC2)C(=O)C(NC(=O)CCC)=C(N2CC2)C1=O,T/C,"dose: 0.13 mg/kg/injection, schedule: Q01DX009 (ip), vehicle: saline with Tween-80",120 % of control
same,T/C,"dose: 0.2 mg/kg/injection, schedule: Q01DX009 (ip), vehicle: saline with Tween-80",118 % of control
same,T/C,"dose: 0.44 mg/kg/injection, schedule: Q01DX009 (ip), vehicle: saline with Tween-80",112 % of control
same,T/C,"dose: 1.0 mg/kg/injection, schedule: Q01DX009 (ip), vehicle: saline with Tween-80",157 % of control
same,T/C,"dose: 1.56 mg/kg/injection, schedule: Q01DX009 (ip), vehicle: saline with Tween-80",181 % of control
same,T/C,"dose: 2.5 mg/kg/injection, schedule: Q04DX003 (ip), vehicle: saline with Tween-80",159 % of control
same,T/C,"dose: 3.13 mg/kg/injection, schedule: Q04DX003 (ip), vehicle: saline with Tween-80",154 % of control
same,T/C,"dose: 5.0 mg/kg/injection, schedule: Q04DX003 (ip), vehicle: saline with Tween-80",200 % of control
same,T/C,"dose: 6.25 mg/kg/injection, schedule: Q01DX009 (ip), vehicle: saline with Tween-80",86 % of control
same,T/C,"dose: 6.25 mg/kg/injection, schedule: Q04DX003 (ip), vehicle: saline with Tween-80",227 % of control
same,T/C,"dose: 12.5 mg/kg/injection, schedule: Q04DX003 (ip), vehicle: saline with Tween-80",104 % of control
O=C(O)C1Cc2c([nH]c3ccccc23)C(c2cccs2)N1 (stereo not given),T/C,"dose: 60.0 mg/kg/injection, schedule: Q01DX005 (ip), vehicle: Klucel (hydroxypropylcellulose) (HPC)",100 % of control
same,T/C,"dose: 120.0 mg/kg/injection, schedule: Q01DX005 (ip), vehicle: Klucel (hydroxypropylcellulose) (HPC)",96 % of control
same,T/C,"dose: 240.0 mg/kg/injection, schedule: Q01DX005 (ip), vehicle: Klucel (hydroxypropylcellulose) (HPC)",97 % of control
COc1c2ccoc2cc2oc(COC3OC(CO)C(O)C(O)C3O)cc(=O)c12 (stereo not given),T/C,"dose: 12.5 mg/kg/injection, schedule: Q01DX005 (ip), vehicle: saline",100 % of control
same,T/C,"dose: 25.0 mg/kg/injection, schedule: Q01DX005 (ip), vehicle: saline",108 % of control
same,T/C,"dose: 50.0 mg/kg/injection, schedule: Q01DX005 (ip), vehicle: saline",106 % of control and 108 % of control
C=C(C#N)CCl,T/C,"dose: 25.0 mg/kg/injection, schedule: Q01DX001 (ip), vehicle: saline with Tween-80",104 % of control
same,T/C,"dose: 50.0 mg/kg/injection, schedule: Q01DX001 (ip), vehicle: saline with Tween-80",95 % of control
CC(=O)Nc1ccc(/C=N/NC(=O)COc2ccccc2)cc1,T/C,"dose: 60.0 mg/kg/injection, schedule: Q01DX005 (ip), vehicle: saline",100 % of control
same,T/C,"dose: 120.0 mg/kg/injection, schedule: Q01DX005 (ip), vehicle: saline",100 % of control
same,T/C,"dose: 240.0 mg/kg/injection, schedule: Q01DX005 (ip), vehicle: saline",100 % of control
[Cl][Pd][Cl].[NH-]C(CC(N)=O)C(=O)O (stereo not given),T/C,"dose: 12.5 mg/kg/injection, schedule: Q01DX005 (ip), vehicle: Klucel (hydroxypropylcellulose) (HPC)",101 % of control
same,T/C,"dose: 25.0 mg/kg/injection, schedule: Q01DX005 (ip), vehicle: Klucel (hydroxypropylcellulose) (HPC)",95 % of control
same,T/C,[4],100 % of control and 113 % of control
OC1C(CCl)OC(OC2(CCl)OC(CCl)C(O)C2O)C(O)C1O (stereo not given),T/C,[1],94 % of control
same,T/C,[2],109 % of control
same,T/C,[3],110 % of control
